Where two headings read alike, the source gives them in different places.
Experiments:
[1] = test system: large crabgrass; assay: Test A pre-/postemergence herbicide test; format: in vivo, Digitaria sanguinalis; details: for pest or weed control at 500 g/ha / pest or weed control at 2000 g/ha: Digitaria sanguinalis, 240 h
Outline: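 Seeds sown in sandy loam received a preemergence directed soil spray of compound in non-phytotoxic solvent with surfactant; postemergence plants (2–10 cm, one- to two-leaf stage) were sprayed to runoff at the same time. After ~10 days in greenhouse, injury was rated visually versus untreated controls (0 = no effect, 100 = complete control).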

[2] = test system: rice; assay: Test B pre-/postemergence herbicide test; format: in vivo, Oryza sativa
Outline: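 Response was scored visually 13 to 15 days after treatment against untreated greenhouse controls, 0 meaning no effect and 100 complete control. Formulations (solvent mixture plus surfactant) went onto soil after planting, onto foliage of 1- to 4-leaf plants, and onto 2-leaf plants in a flooded paddy set including rice and barnyardgrass.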

[3] = test system: woolly cupgrass; assay: Test C pre-/postemergence herbicide test; format: in vivo, Eriochloa villosa
Outline: (§1)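 Seeds were planted and sprayed preemergence with test chemicals in a non-phytotoxic solvent mixture containing surfactant; postemergence treatments went onto plants 2 to 18 cm tall (1- to 4-leaf stage). After 12 to 14 days in a greenhouse, injury was rated visually against untreated controls on a 0–100 scale.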

[4] = test system: giant foxtail; assay: Test C pre-/postemergence herbicide test; format: in vivo, Setaria faberi
Outline: as §1

[5] = test system: kochia; assay: Test C pre-/postemergence herbicide test; format: in vivo, Kochia scoparia
Outline: as §1

[6] = test system: morningglory; assay: Test C pre-/postemergence herbicide test; format: in vivo, Ipomoea coccinea; parameters: key to Plant response rating, Morningglory: 0 = no effect, 100 = complete control
Outline: as §1

[7] = test system: eastern black nightshade; assay: Test C pre-/postemergence herbicide test; format: in vivo, Solanum ptycanthum
Outline: as §1

[8] = test system: pigweed; assay: Test C pre-/postemergence herbicide test; format: in vivo, Amaranthus retroflexus
Outline: as §1

[9] = test system: common (oilseed) sunflower; assay: Test C pre-/postemergence herbicide test; format: in vivo, Helianthus annuus
Outline: as §1

[10] = test system: barnyardgrass; assay: Test C flooded paddy test; format: in vivo, Echinochloa crus-galli
Outline: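 Postemergence sprays were applied to plants 2 to 18 cm tall (1- to 4-leaf stage); in the flooded paddy test, barnyardgrass was grown to the 2-leaf stage. After 12 to 14 days in a greenhouse, injury was visually rated against untreated controls on a 0–100 scale (100 = complete control).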

[11] = Preemergence, 500 g ai/ha, scale 0 to 100, 0 no effect, 100 complete control
[12] = 62 g ai/ha, preemergence, scale 0 to 100
[13] = 125 g ai/ha, scale 0 (no effect) to 100 (complete control), visual, 12 to 14 days, preemergence
[14] = 250 g ai/ha, scale 0-100, preemergence
[15] = 500 g ai/ha, scale 0 to 100 (0 no effect, 100 complete control), visual, 12 to 14 days, preemergence

CCn1nc(C(C)(C)C)cc1C(=O)Nc1cc(C(=O)N(C)C)ccc1F [Compound 6, N-[5-[(dimethylamino)carbonyl]-2-fluorophenyl]-3-(1,1-dimethylethyl)-1-ethyl-1H-pyrazole-5-carboxamide]
pest or weed control at 500 g/ha ([1]; post-emergence, Postemergence, 500 g ai/ha, 0 to 100 scale, 0 no effect, 100 complete control, read-out: Plant response rating, Crabgrass, Large): 80% | pest or weed control at 2000 g/ha ([1]; post-emergence, Postemergence, 2000 g ai/ha, 0 to 100 scale, 0 no effect, 100 complete control, read-out: Plant response rating, Crabgrass, Large): 90% | pest or weed control at 500 g/ha ([1]; pre-emergence, Preemergence, 500 g ai/ha, visual rating, 0 to 100 scale (0 no effect, 100 complete control), read-out: Crabgrass, Large plant response rating): 100% | pest or weed control at 2000 g/ha ([1]; pre-emergence, Preemergence, 2000 g ai/ha, 0 to 100 scale, 0 no effect, 100 complete control, read-out: Crabgrass, Large plant response rating): 100% | Rice plant response rating ([2]; Preemergence, 500 g ai/ha, scale 0 to 100): 100 | Plant response rating (0 = no effect, 100 = complete control), Cupgrass, Woolly ([3]; 62 g ai/ha, preemergence): 50 | pest or weed control at 125 g/ha ([3]; Eriochloa villosa, pre-emergence, 312 h, 125 g ai/ha, scale 0-100, read-out: Plant response rating, Cupgrass, Woolly): 55% | pest or weed control at 250 g/ha ([3]; Eriochloa villosa, pre-emergence, 312 h, 250 g ai/ha, scale 0 to 100 (0 no effect, 100 complete control), visual, 12 to 14 days, read-out: Plant response rating, Cupgrass, Woolly): 75% | Cupgrass, Woolly plant response rating [3, 11]: 75 | Plant response rating (0 = no effect, 100 = complete control), Foxtail, Giant ([4]; 62 g ai/ha, preemergence): 60 | Foxtail, Giant plant response rating [4, 11]: 100 | pest or weed control at 125 g/ha ([4]; Setaria faberi, pre-emergence, 312 h, 125 g ai/ha, scale 0-100, read-out: Plant response rating, Foxtail, Giant): 80% | pest or weed control at 250 g/ha ([4]; Setaria faberi, pre-emergence, 312 h, 250 g ai/ha, scale 0 to 100 (0 no effect, 100 complete control), visual, 12 to 14 days, read-out: Plant response rating, Foxtail, Giant): 85% | Plant response rating (0 = no effect, 100 = complete control), Kochia ([5]; 62 g ai/ha, preemergence): 100 | pest or weed control at 125 g/ha ([5]; Bassia scoparia, pre-emergence, 125 g ai/ha, scale 0-100, read-out: Plant response rating, Kochia): 100% | pest or weed control at 250 g/ha ([5]; Bassia scoparia, pre-emergence, 250 g ai/ha, scale 0 to 100 (0 no effect, 100 complete control), visual, 12 to 14 days, read-out: Plant response rating, Kochia): 100% | Kochia plant response rating [5, 11]: 100 | Plant response rating (0 = no effect, 100 = complete control), Morningglory ([6]; 62 g ai/ha, preemergence): 0 | pest or weed control at 250 g/ha ([6]; Ipomoea, pre-emergence, 250 g ai/ha, scale 0 to 100 (0 no effect, 100 complete control), visual, 12 to 14 days, read-out: Plant response rating, Morningglory): 30% | Morningglory plant response rating [6, 11]: 70 | Plant response rating (0 = no effect, 100 = complete control), Nightshade ([7]; 62 g ai/ha, preemergence): 100 | Nightshade plant response rating [7, 11]: 100 | pest or weed control at 250 g/ha ([7]; pre-emergence, 250 g ai/ha, scale 0 to 100 (0 no effect, 100 complete control), visual, 12 to 14 days, read-out: Plant response rating, Nightshade): 100% | Plant response rating (0 = no effect, 100 = complete control), Pigweed ([8]; 62 g ai/ha, preemergence): 100 | pest or weed control at 250 g/ha ([8]; Amaranthus retroflexus, pre-emergence, 250 g ai/ha, scale 0 to 100 (0 no effect, 100 complete control), visual, 12 to 14 days, read-out: Plant response rating, Pigweed): 100% | Pigweed plant response rating [8, 11]: 100 | Plant response rating (0 = no effect, 100 = complete control), Sunflower ([9]; 62 g ai/ha, preemergence): 0 | pest or weed control at 250 g/ha ([9]; Helianthus annuus, pre-emergence, 250 g ai/ha, scale 0 to 100 (0 no effect, 100 complete control), visual, 12 to 14 days, read-out: Plant response rating, Sunflower): 100% | Sunflower plant response rating [9, 11]: 100 | pest or weed control at 62 g/ha ([10]; Echinochloa crus-galli, 62 g ai/ha, scale 0 to 100 (0 no effect, 100 complete control), read-out: Barnyardgrass plant response rating): 60% | pest or weed control at 125 g/ha ([10]; Echinochloa crus-galli, 125 g ai/ha, scale of 0 to 100, 0 is no effect, 100 is complete control, read-out: Barnyardgrass plant response rating): 90% | pest or weed control at 250 g/ha ([10]; Echinochloa crus-galli, 250 g ai/ha, visual rating after 12 to 14 days, scale 0 to 100 (0 no effect, 100 complete control), read-out: Plant response rating, Barnyardgrass): 90% | pest or weed control at 500 g/ha ([10]; Echinochloa crus-galli, 500 g ai/ha, visual rating after 12 to 14 days, scale 0 to 100 (0 no effect, 100 complete control), read-out: Plant response rating, Barnyardgrass): 90%

CCc1nc(C(C)(C)C)sc1C(=O)Nc1cccc(C(=O)NCC2CC2)n1 [Compound 215]
Crabgrass, Large plant response rating ([1]; Postemergence, 500 g ai/ha, 0 to 100 scale, 0 no effect, 100 complete control): 20 | Plant response rating, Crabgrass, Large ([1]; Postemergence, 2000 g ai/ha, 0 to 100 scale, 0 no effect, 100 complete control): 30 | Crabgrass, Large plant response rating ([1]; Preemergence, 2000 g ai/ha, visual rating, 0 to 100 scale (0 no effect, 100 complete control)): 55 | Crabgrass, Large plant response rating ([1]; preemergence, 500 g ai/ha, visual injury, 0 to 100 scale (0 no effect, 100 complete control)): 30 | Rice plant response rating (0 to 100 scale) ([2]; 125 g ai/ha, 0 = no effect, 100 = complete control, preemergence): 0 | Plant response rating, Rice ([2]; 500 g ai/ha, visual rating, 0 = no effect, 100 = complete control, preemergence): 0 | Plant response rating, Cupgrass, Woolly [3, 12]: 0 | Plant response rating, Cupgrass, Woolly [3, 13]: 10 | Plant response rating, Cupgrass, Woolly [3, 14]: 40 | Plant response rating, Cupgrass, Woolly [3, 15]: 50 | Plant response rating, Foxtail, Giant [4, 12]: 0 | Plant response rating, Foxtail, Giant [4, 13]: 50 | Plant response rating, Foxtail, Giant [4, 14]: 70 | Plant response rating, Foxtail, Giant [4, 15]: 100 | Plant response rating, Kochia [5, 12]: 100 | Plant response rating, Kochia [5, 13]: 100 | Plant response rating, Kochia [5, 14]: 100 | Plant response rating, Kochia [5, 15]: 100 | Plant response rating, Morningglory [6, 12]: 0 | Plant response rating, Morningglory [6, 13]: 0 | Plant response rating, Morningglory [6, 14]: 0 | Plant response rating, Morningglory [6, 15]: 40 | Plant response rating, Nightshade [7, 12]: 100 | Plant response rating, Nightshade [7, 13]: 100 | Plant response rating, Nightshade [7, 14]: 100 | Plant response rating, Nightshade [7, 15]: 100 | Plant response rating, Pigweed [8, 12]: 80 | Plant response rating, Pigweed [8, 13]: 100 | Plant response rating, Pigweed [8, 14]: 100 | Plant response rating, Pigweed [8, 15]: 100 | Plant response rating, Sunflower [9, 12]: 0 | Plant response rating, Sunflower [9, 14]: 0 | Plant response rating, Sunflower [9, 15]: 0 | Barnyardgrass plant response rating ([10]; 62 g ai/ha, scale 0 to 100 (0 no effect, 100 complete control)): 0 | Barnyardgrass plant response rating ([10]; 125 g ai/ha, scale 0 to 100 (0 no effect, 100 complete control)): 0 | Barnyardgrass plant response rating ([10]; 250 g ai/ha, scale of 0 to 100, 0 is no effect, 100 is complete control): 40 | Plant response rating, Barnyardgrass ([10]; 500 g ai/ha, visual rating after 12 to 14 days, scale 0 to 100 (0 no effect, 100 complete control)): 50

Source: US20060069132A1, “Azolecarboxamide herbicides” (priority 2004, published 2006)
